Measurements published in patent US20220378773A1, “METHODS FOR TREATING LEUKEMIA AND USE OF A LEUKEMIC STEM CELL SIGNATURE TO PREDICT CLINICAL SENSITIVITY TO THERAPIES” (CELGENE CORPORATION, priority 2019, published 2022).
Where “and” joins values, the source holds several entries; their conditions need not be identical. Equal values may be shown once.

Legend:
primary AML graft = test: Pilot in vivo dose study on primary AML graft, 2 weeks dosing; design: species or system NOD/SCID mice
Method: Intrafemoral Transplantation: One day prior to transplantation, NOD/SCID mice were preconditioned by sublethally irradiating (275 cGy) followed by injection with anti-CD122 antibody (200 μg/mouse) to deplete residual host natural killer (NK) cells. On the day of transplantation, viably frozen AML bulk cells (see Section 6.2.1.2) were thawed, counted, and transplanted intrafemorally into the preconditioned mice at a dose of 5×10^6 cells/mouse in a total volume of 30 μL phosphate buffered saline.
Cells harvested from injected and non-injected bone marrow were stained with mouse anti human antibodies as indicated in Section 6.2.1.3. After staining, washed cells were run on an LSRII flow cytometer (BD, USA) with 10,000 to 20,000 events collected for each sample. Collected data were analyzed by FlowJo software (TreeStar, USA) to assess AML engraftment levels in different tissues as determined by the percentage of human CD45+CD33+ cells.
A pilot study was first conducted to determine the potential dosage that can be used to target primary AML graft in NOD/SCID mice. Two AML patient samples (AML 110500 and AML 90191) were tested at 1.25 or 2.5 mg/kg Compound D once daily (QD) or twice daily (BID) intraperitoneally for a total of 4 different dose/schedule groups (FIG. 4). Following pretreatment with sublethal irradiation and anti-CD122 antibody, NOD/SCID mice were intrafemorally transplanted with AML cells that were previously collected from patients and viably frozen. Mice were dosed with Compound D for 2 weeks post transplantation starting on Day 21. […] Percentage of cells positive with myeloid cell marker CD15 were also elevated in both RF and BM of 2.5 mg/kg BID Compound D-dosed mice (FIG. 4, bottom left). […] Based on this pilot study, Compound D was dosed at 2.5 mg/kg BID for the rest of the in vivo experiments.

[1] = Tolerability and body weight of AML xenograft mice; assay type: in vivo, NOD/SCID mice
Method: Treatment and Assay Procedure: At Day 21 post AML transplantation, mice were randomly grouped and dosed with either Compound D at 2.5 mg/kg or vehicle (5% N-methyl-2-pyrrolidone [NMP]/45% polyethylene glycol [PEG] 400/50% saline), intraperitoneally twice daily in a dose volume of 50 μL for 4 weeks. All animals were euthanized at scheduled termination (1 day after the last treatment) and bone marrow was collected from the right femur (injected bone marrow) and the left femur and left and right tibia (non-injected bone marrow). Cells isolated from injected or non-injected bone marrow were analyzed by flow cytometry to assess AML engraftment, and were viably frozen for future secondary engraftment analysis.
Based on the pilot data (FIG. 4) in which one of the 2 samples responded to Compound D dosing at 2.5 mg/kg BID for 2 weeks, the duration of dosing was extended to 4 weeks to determine if the mice could tolerate longer Compound D dosing. Mice transplanted with 3 different AML samples were closely monitored for clinical conditions during treatment.

## O=C1CCC(N2Cc3cc(CNC(=O)C(F)(F)c4ccc(Cl)cc4)ccc3C2=O)C(=O)N1 (stereo not shown) [Compound D, 2-(4-chlorophenyl)-N-((2-(2,6-dioxopiperidin-3-yl)-1-oxoisoindolin-5-yl)methyl)-2,2-difluoroacetamide]
Primary AML graft; AML 90191
  grafted cells: largely not affected
Primary AML graft; AML 110500, 2.5 mg/kg BID
  CD34+ primitive leukemic cells in RF and BM: decreased the most
  percentage of CD15 positive cells in RF and BM: elevated
Primary AML graft; AML 110500, 2.5 mg/kg QD and BID
  AML grafts in RF and BM: significantly decreased
Primary AML graft; AML 110500, 1.25 or 2.5 mg/kg QD or BID IP, 2 weeks, vs vehicle
  AML graft: reduced AML graft of patient sample AML 110500 cells in a dose-dependent manner
[1]; 4 weeks of treatment, mice with different primary AML samples
  tolerability: well tolerated
[1]; group mean
  Body weight, Week 1, average (mean): Avg = 21.8
  Body weight, Week 2, average (mean): Avg = 21.7
  Body weight, Week 3, average (mean): Avg = 21.6
[1]; individual mice
  Body weight, Week 1: 21 g (5×) and 23 g (2×) and 20 g (2×) and 22 g (4×) and 24 g (2×)
  Body weight, Week 2: 22 g (3×) and 20 g (3×) and 24 g (2×) and 23 g (3×) and 19 g and 21 g (3×)
  Body weight, Week 3: 23 g and 21 g (4×) and 19 g and 22 g (5×) and 24 g (2×) and 20 g (2×)
[1]; mouse transplanted with Patient Sample 120860, last day of 4-week treatment
  paralysis / death: Only one Compound D-treated mouse was found paralyzed
